Measurements taken from publication PMC9609996, “SAR Study and Molecular Mechanism Investigation of Novel Naphthoquinone-furan-2-cyanoacryloyl Hybrids with Antitumor Activity” (Pharmaceutics, 2022).

Legend:
HeLa cells [1] = assay: Wound healing assay; format: cell-based, human; conditions: 6 μM, 48 h
Protocol: A total of 1 × 10^6 HeLa cells/well in the logarithmic growth phase were seeded into 6-well plates. When the cell density reached 80–90%, a scratch was made in the monolayer in the middle of the well with a 200 μL pipette tip. The tip was kept perpendicular to the bottom of the well to obtain a straight gap. The detached cells were washed away and removed. Wound healing within the same scraped line was then observed and photographed at the indicated time points (0 h, 24 h, and 48 h). Images were taken at 0 h, 24 h and 48 h after scraping using a phase-contrast microscope. The wound closure was calculated as a percentage (%) of the difference in the width of the wound between 0 h, 24 h and 48 h relative to 0 h, as described below: Wound closure (%) = (Width of wound at 0 h − Width of wound at 24 h)/Width of wound at 0 h × 100%

MDA-MB-231 = assay: CCK-8 anti-proliferation assay, MDA-MB-231; format: cell-based, human; conditions: mean ± SD
Protocol: (§1) Human cervical cancer HeLa, human prostate cancer PC3, human colonic carcinoma HCT116, human lung carcinoma A549, human breast cancer MDA-MB-231, mouse melanoma B16, human ovarian cancer SKOV3, human hepatoma Hep3B, and human liver L02 cells were purchased from the Cell Bank of Shanghai Institute of Biochemistry and Cell Biology, Chinese Academy of Sciences (Shanghai, China). The HeLa, A549, B16, PC3, MDA-MB-231, HCT116, and L02 cells were cultured in Dulbecco’s modified Eagle medium (DMEM, Gibco Inc.; Gaithersburg, MD, USA). All cultures were supplied with 10% fetal bovine serum (FBS; YHSM, Beijing, China), 100 IU/mL of penicillin, and 100 μg/mL of streptomycin, and cells were incubated at 37 °C in an atmosphere of 5% CO2.
(§2) A CCK-8 kit (MCE, USA) was used to perform a CCK-8 assay. Cells were plated and grown in the 96-well plates for the indicated period (48 h) in the incubator, followed by an incubation with the CCK-8 solutions for 1–4 h. Subsequently, the absorbance (450 nm) was measured by a microplate reader. The median inhibitory concentration (IC50) was determined from the dose–response curve. Experiments were performed in a triplicate.

recombinant STAT3 = recombinant STAT3 (Homo sapiens, UniProt P40763); assay: Biolayer interferometry (BLI) assay; conditions: 5c 7.81 to 250 μM, 25 °C, read-out: binding affinity (KD)
Protocol: To confirm that compound 5c is a direct STAT3 inhibitor, a BLI (Biolayer interferometry) analysis was performed. Briefly, recombinant STAT3 with a His-tag was immobilized on SSA biosensors, and the dissociation constants were determined by measuring the binding to serial dilutions of 5c at concentrations ranging from 7.81 to 250 μM (Figure 10A). The signal was collected, and the kinetic affinity was calculated by the software. The steady-state curve reaches saturation (Figure 10B).
Purified recombinant STAT3 proteins were biotinylated using the EZ-Link biotinylation reagent (Thermo Fisher Scientific). Briefly, the protein and biotinylation reagent were mixed with a 1:1 molar ratio in PBS at 4 °C. Low biotinylation reagent concentration was applied to avoid protein over-biotinylation. These reaction mixtures were incubated at room temperature for 30 min to allow for the completion of the reaction. Reaction mixture was then dialyzed using 10K MWCO dialysis cassettes (Thermo Fisher Scientific) to remove unreacted biotinylation reagent.
BLI experiments were performed using an OctetRED96 instrument from ForteBio. All assays were run at 25 °C with continuous 1000 RPM shaking. […] The resulting data were analyzed based on a 1:1 binding model from which the kon and koff values were obtained. After, the KD values were calculated.

A549 = assay: CCK-8 anti-proliferation assay, A549; format: cell-based, human; conditions: mean ± SD; for IC50: 48 h
Protocol: as §1, §2

HCT116 = assay: CCK-8 anti-proliferation assay, HCT116; format: cell-based, human; conditions: Homo sapiens, mean ± SD
Protocol: as §1, §2

HeLa cells [2] = assay: Cell cycle analysis by flow cytometry; format: cell-based, human; conditions: 12 μM; 24 h; 10.19% at 0 μM
Protocol: To investigate the effect of compound 5c on the cell cycle distribution, a flow cytometric analysis was performed. HeLa cells were treated with 5c at concentrations of 0 μM, 6 μM, 9 μM, and 12 μM for 24 h and then subjected to a flow cytometric analysis after DNA staining. […] Accordingly, treatment of HeLa cells with 5c induced a G2/M phase arrest of cell cycle progression.
(§3) For the cell cycle analysis, HeLa cells seeded in a 6-well plate (3 × 10^5 per well) were incubated with different concentrations of compound 5c or 0.1% DMSO for 24 h. Then, the cells were digested with 0.25% trypsin (without EDTA) and were washed twice with PBS, fixed in 70% ethanol overnight, and stained with PI ([…], Sigma) plus 0.2 mg/mL of DNase-free RNase A (Qiagen) for 20 minutes at room temperature. For the annexin V apoptosis assay, HeLa cells seeded in a 6-well plate (3 × 10^5 per well) were incubated with different concentrations of compound 5c or 0.1% DMSO for 24 h. Then, the cells were digested with 0.25% trypsin (without EDTA) and were washed twice with PBS. The cells were then collected and resuspended in 500 μL of the binding buffer. We added 5 μL of annexin V-FITC and PI each into the mixture in the dark. After 20 min of incubation, a flow cytometer (FACSCalibur; Becton Dickinson, Franklin Lakes, NJ, USA) was used to detect apoptosis (FITC Ex/Em = 488/525 nm and PI Ex/Em = 535/615 nm). […]

HeLa cells [3] = assay: Annexin V-FITC/PI apoptosis assay; format: cell-based, human; conditions: 12 μM
Excerpt: Apoptosis in cancer cells could be caused by the generation of intracellular ROS [31, 32, 33]. Three methods were utilized to assess the effect of compound 5c on the apoptosis of HeLa cells. First, Hoechst 33342 was utilized to stain the HeLa cells that were pretreated with different concentrations of compound 5c. Then, the cells were observed under a fluorescence microscope. […] Second, an annexin V-FITC/PI double staining method was used to quantitatively detect the effect of compound 5c on cell apoptosis. A quantitative analysis was performed using a flow cytometry analysis. […] Third, the levels of Bcl-xl family proteins, well-known as apoptosis-related proteins, were determined by Western blotting analysis.
as §3, with “PBS.” for “PBS. The cells were then collected and resuspended in 500 μL of the binding buffer. We added 5 μL of annexin V-FITC and PI each into the mixture in the dark. After 20 min of incubation, a flow cytometer (FACSCalibur; Becton Dickinson, Franklin Lakes, NJ, USA) was used to detect apoptosis (FITC Ex/Em = 488/525 nm and PI Ex/Em = 535/615 nm).”

Sequence of recombinant STAT3 (P40763 whole entry): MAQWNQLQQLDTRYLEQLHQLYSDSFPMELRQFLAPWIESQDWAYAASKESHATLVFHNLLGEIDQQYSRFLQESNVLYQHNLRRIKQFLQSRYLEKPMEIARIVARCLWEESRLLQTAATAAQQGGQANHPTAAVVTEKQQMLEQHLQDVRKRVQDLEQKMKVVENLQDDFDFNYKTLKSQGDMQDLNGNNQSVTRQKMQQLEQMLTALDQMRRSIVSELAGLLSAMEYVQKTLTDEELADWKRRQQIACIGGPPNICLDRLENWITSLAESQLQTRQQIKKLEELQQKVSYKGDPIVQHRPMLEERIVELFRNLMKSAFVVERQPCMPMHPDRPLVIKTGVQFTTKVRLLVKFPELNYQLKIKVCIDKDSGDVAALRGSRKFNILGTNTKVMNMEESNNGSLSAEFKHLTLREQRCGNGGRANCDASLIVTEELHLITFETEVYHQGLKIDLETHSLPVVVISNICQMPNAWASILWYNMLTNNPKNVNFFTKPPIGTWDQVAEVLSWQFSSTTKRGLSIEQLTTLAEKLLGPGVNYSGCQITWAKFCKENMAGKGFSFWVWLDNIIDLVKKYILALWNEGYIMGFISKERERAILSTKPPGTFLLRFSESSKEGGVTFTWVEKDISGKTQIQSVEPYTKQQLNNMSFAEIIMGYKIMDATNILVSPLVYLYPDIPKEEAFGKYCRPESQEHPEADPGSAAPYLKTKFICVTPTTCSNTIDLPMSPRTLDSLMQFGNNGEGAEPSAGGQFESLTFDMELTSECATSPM

IC50 (MDA-MB-231; 48 h): 40.74 ± 0.12 µM
IC50 (MDA-MB-231; Homo sapiens, MDA-MB-231, 48 h): > 20.5 µM
Kd (recombinant STAT3): 13 µM
IC50 (A549): 35.27 ± 0.07 µM
IC50 (A549; Homo sapiens, A549, 48 h): > 20.5 µM
IC50 (HCT116; HCT-116, 48 h): 13.38 ± 0.04 µM
SMILES: N#C/C(=C\c1ccc(C2=CC(=O)c3ccccc3C2=O)o1)C(=O)NCCN1CCOCC1 [Compound 5c, (E)-2-cyano-3-(5-(1,4-dioxo-1,4-dihydronaphthalen-2-yl)furan-2-yl)-N-(2-morpholinoethyl)acrylamide]
cell migration (HeLa cells [1]): significantly inhibited
inhibition at 20 µM (A549; Homo sapiens, A549, 20 μM, read-out: Inhibition Rate (%) at 20 μM A549): 24.69 ± 0.04%
inhibition at 20 µM (HCT116; HCT-116, 20 μM, read-out: Inhibition Rate (%) at 20 μM HCT116): 67.67 ± 0.01%
HeLa cell population in the G2/M phase (HeLa cells [2]): 23.88%
percentage of apoptotic cells (HeLa cells [3]): 46.70%
